# Key:
# H3R = biological target: T1, H3R (Mus musculus, UniProt P58406); test: Dynamic PET imaging in CD1 mice, baseline and H3R antagonist blocking; assay type: in vivo; conditions: for V T, cerebellum / V T, cortex / V T, hippocampus / V T, striatum / V T, thalamus / V T, whole brain: Logan analysis, IDIF
# T1 construct: dynamic PET imaging studies were conducted in CD1 mice; from tissue; host or cells: brain of living CD1 mice
# Method: To elucidate the in vivo brain uptake of [^18F]3 and [^18F]4, dynamic PET imaging studies were conducted in CD1 mice (an outbred strain of immunocompetent mice commonly used for pharmacokinetic and biodistribution studies) for 60 min. The results, which include summed PET images (0–60 min), whole-brain time-activity curves (TACs), and area under the curve (AUC) for both radioligands, are depicted in Figures and . At baseline, [^18F]3 rapidly crossed the BBB following intravenous injection, reaching peak whole-brain uptake with a standardized uptake value (SUV) value of 2.4 at 2.3 min. This was followed by a gradual washout and reached a SUV of 1.87 by 60 min. To evaluate the binding characteristics of [^18F]3, elective H3R antagonists with distinct structural scaffolds, GSK189254, enerisant, and cipralisant, were used as blocking agents. […] Quantification of specific tracer binding was performed using volume of distribution (V T) values, derived from compartmental modeling and an image-derived input function (IDIF). […] While these findings support the utility of [^18F]3 for in vivo studies, we acknowledge the inherent limitations of IDIF, including the lack of metabolite correction and potential inaccuracies in capturing early phase kinetics.
# PET imaging was conducted following previously reported methods. CD1 mice (5–6 weeks) were anesthetized with 1.5% (v/v) isoflurane during the scan. A dose of 3.0 MBq of [^18F]3 or [^18F]4 was intravenously injected into the tail vein, and a dynamic scan was acquiring using a PET scanner (MOLECUBES, beta-cube) for 60 min. In the blocking studies, GSK189254 (3 mg/kg) in 0.1 mL of saline containing 5% ethanol and 5% Tween-80 was preinjected for 10 min prior to the injection of PET radioligands. The results were reconstructed and analyzed by PMOD 4.3 software.
# Quantification of specific tracer binding was performed using volume of distribution (VT) values, derived from compartmental modeling and an image-derived input […]
# significant reduction in H3R-rich brain regions such as the cortex and striatum under blocking conditions with GSK189254, enerisant, and cipralisant, confirming the specificity of [18F]3 binding (Table S1).
# Table S1. Estimation of V T values by Logan analysis in mice with [ 18F]3 at baseline, GSK189254-blocking (3 mg/kg), enerisant-blocking (3 mg/kg), and cipralisant-blocking (3 mg/kg) conditions.
# Group Baseline GSK189254 Enerisant Cipralisant blocking blocking blocking
# sigma-1 receptor = biological target: T2, sigma-1 receptor (Mus musculus, UniProt O55242); test: PET imaging in mice with NE-100 or ABT-239 blocking; assay type: in vivo
# T2 construct: we conducted additional in vivo PET imaging studies using NE-100; from tissue; host or cells: brain of living mice
# T2 sequence (O55242 whole entry): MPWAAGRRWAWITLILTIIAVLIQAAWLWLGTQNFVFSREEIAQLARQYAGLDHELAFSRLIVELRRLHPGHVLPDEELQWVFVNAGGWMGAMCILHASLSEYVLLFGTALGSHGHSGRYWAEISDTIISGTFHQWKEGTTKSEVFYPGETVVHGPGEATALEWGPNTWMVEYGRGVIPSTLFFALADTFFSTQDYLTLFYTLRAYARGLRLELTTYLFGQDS
# [1] = In vitro stability in serum, mice; assay type: in vitro ADME; conditions: 37 °C, 30, 60 and 90 min
# Method: (§1) To assess the stability of [^18F]3, in vitro radioactivity analyses were conducted following 30-, 60- and 90 min coincubation of the radioligand in the serum and liver microsomes from mice, nonhuman primates (NHPs), and humans (Figure ).
# (§2) Serum from mice, NHPs, and humans were warmed to room temperature, 15 MBq of [^18F]3 was added to 0.4 mL of each species’ serum. The mixtures were incubated at 37 °C and 0.1 mL of mixture was transferred into 0.2 mL cold acetonitrile at 30, 60, and 90 min. The samples were vortexed for 15 s and then centrifuged at 10,000g for 5 min. The supernatant was analyzed using analytical HPLC (Agilent 1100 series HPLC system on Phenomenex Luna C-18 column (4.6 × 150 mm), mobile phase 30% CH3CN/0.1% TFA in water, flow:1 mL/min). For microsomes studies, a mixture of microsomes (0.5 mg/mL), [^18F]3 (15 MBq), 0.35 mL of PBS, 0.05 mL of NADPH regenerating system A, and 0.01 mL of NADPH regenerating system B were incubated at 37 °C. The subsequent steps followed the same procedure as described above.
# [2] = In vitro stability in liver microsomes, mice; assay type: in vitro ADME; conditions: 90 min
# Method: as §1, §2
# [3] = In vitro stability in liver microsomes, NHPs; assay type: in vitro ADME, nonhuman primates (NHPs); conditions: 90 min
# Method: as §1, §2
# [4] = mice pretreated with GSK189254 (3 mg/kg)
# T1 sequence (P58406 whole entry): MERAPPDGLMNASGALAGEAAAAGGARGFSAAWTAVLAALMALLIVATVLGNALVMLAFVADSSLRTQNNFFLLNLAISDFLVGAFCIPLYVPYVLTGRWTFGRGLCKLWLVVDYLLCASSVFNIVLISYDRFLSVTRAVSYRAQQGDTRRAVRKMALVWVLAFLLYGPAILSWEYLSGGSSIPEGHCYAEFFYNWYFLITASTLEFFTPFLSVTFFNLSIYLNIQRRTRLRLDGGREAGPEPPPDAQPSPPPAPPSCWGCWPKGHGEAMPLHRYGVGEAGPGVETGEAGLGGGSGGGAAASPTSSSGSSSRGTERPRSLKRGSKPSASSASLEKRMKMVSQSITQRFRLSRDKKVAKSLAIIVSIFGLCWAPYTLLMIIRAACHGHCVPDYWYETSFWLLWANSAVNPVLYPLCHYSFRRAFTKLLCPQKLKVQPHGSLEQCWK
smiles,measurement,setting,value
O=C([C@H]1C[C@@H]1c1ccc([18F])cc1)N1CCN(C2CCCC2)CC1 [[^18F]3],"whole-brain signal reduction based on AUC, GSK189254 blocking","H3R; GSK189254 3 mg/kg, 0–60 min",32.5%
same,"V T, cerebellum",H3R; GSK189254 blocking 3 mg/kg,3.85 ± 0.61
same,"V T, cortex",H3R; GSK189254 blocking 3 mg/kg,2.17 ± 0.08
same,"V T, hippocampus",H3R; GSK189254 blocking 3 mg/kg,3.77 ± 0.47
same,"V T, striatum",H3R; GSK189254 blocking 3 mg/kg,2.91 ± 0.05
same,"V T, thalamus",H3R; GSK189254 blocking 3 mg/kg,3.90 ± 0.90
same,"V T, whole brain",H3R; GSK189254 blocking 3 mg/kg,3.40 ± 0.44
same,"V T, cerebellum",H3R; baseline,5.59 ± 0.37
same,"V T, cortex",H3R; baseline,4.82 ± 0.09
same,"V T, hippocampus",H3R; baseline,5.80 ± 0.05
same,"V T, striatum",H3R; baseline,5.64 ± 0.02
same,"V T, thalamus",H3R; baseline,6.71 ± 0.05
same,"V T, whole brain",H3R; baseline,5.29 ± 0.52
same,"V T, cerebellum",H3R; cipralisant blocking 3 mg/kg,2.94 ± 0.33
same,"V T, cortex",H3R; cipralisant blocking 3 mg/kg,2.38 ± 0.34
same,"V T, hippocampus",H3R; cipralisant blocking 3 mg/kg,2.61 ± 0.32
same,"V T, striatum",H3R; cipralisant blocking 3 mg/kg,2.67 ± 0.33
same,"V T, thalamus",H3R; cipralisant blocking 3 mg/kg,2.78 ± 0.40
same,"V T, whole brain",H3R; cipralisant blocking 3 mg/kg,2.61 ± 0.30
same,"V T, cerebellum",H3R; enerisant blocking 3 mg/kg,3.73 ± 0.16
same,"V T, cortex",H3R; enerisant blocking 3 mg/kg,3.18 ± 0.12
same,"V T, hippocampus",H3R; enerisant blocking 3 mg/kg,3.84 ± 0.19
same,"V T, striatum",H3R; enerisant blocking 3 mg/kg,3.48 ± 0.27
same,"V T, thalamus",H3R; enerisant blocking 3 mg/kg,4.11 ± 0.26
same,"V T, whole brain",H3R; enerisant blocking 3 mg/kg,3.58 ± 0.18
same,time of peak whole-brain uptake,"H3R; baseline, CD1 mice",2.3 min
same,whole-brain uptake at 60 min,"H3R; baseline, CD1 mice",1.87 SUV
same,peak whole-brain uptake,"H3R; baseline, intravenous injection, CD1 mice",2.4 SUV
same,"whole-brain AUC reduction, cipralisant blocking","H3R; cipralisant 3 mg/kg, 0–60 min",38.4%
same,"whole-brain AUC reduction, enerisant blocking","H3R; enerisant 3 mg/kg, 0–60 min",35.6%
same,brain radioactivity at 60 min,H3R; [4],1.27 SUV
same,peak brain radioactivity,H3R; [4],1.98 SUV
same,time of peak brain radioactivity,H3R; [4],1.9 min
same,effect of ABT-239 preinjection on brain signal,sigma-1 receptor; ABT-239 (dual H3R and sigma-1 receptor antagonist) 3 mg/kg,near-complete signal blockade
same,effect of NE-100 blocking on brain uptake,sigma-1 receptor; NE-100 (selective sigma-1 receptor antagonist) 3 mg/kg,partial reduction
same,parent compound remaining intact in serum,[1],over 95%
same,parent fraction in liver microsomes,[2],78%
same,parent fraction in liver microsomes,[3],85%

# — article PMC12362585, “Development and Preclinical Characterization of [^18F]H3-2406 and [^18F]H3-2407 for Positron Emission Tomography Imaging of the Histamine Subtype‑3 Receptor” (Journal of Medicinal Chemistry, 2025)
